Laboratory results taken from PMC4772543, “Immune responses to Mycobacterial heat shock protein 70 accompany self-reactivity to human BiP in rheumatoid arthritis” (Scientific Reports, 2016).

What was measured:
[1] = test system: PBMCs from shared epitope (SE)-positive RA patients; assay: Proliferation of PBMCs from RA patients in response to MycHSP70-derived peptides (3H-thymidine uptake); format: cell-based, human
Procedure: Figure 3 MycHSP70_287–306 was a HLA-DR4-restricted epitope in RA. (A) The proliferation of PBMCs in RA patients (Shared epitope (SE) +/+ n = 12, SE +/− n = 22, SE−/− n = 9) and HDs (SE +/− n = 10) in response to MycHSP70_287–306. Proliferation was determined by the incorporation of [3]-H thymidine. The stimulation index (SI) was calculated using the following equation: (median thymidine uptake to an antigen)/(median thymidine uptake in the absence of an antigen). Horizontal line: the median. (B) Amino acid sequences of MycHSP70 (lower lines) and human BiP (upper lines) near the epitopes. Epitope sequences are indicated in bold letters. […]
PBMCs (1 × 10^6/mL) isolated with Ficoll-Paque (GE Healthcare) were cultured in the presence or absence of each peptide (10 μg/mL) with RPMI 1640 medium supplemented with 10% human serum, 2 mM L-glutamine, 100 U/ml penicillin, and 100 μg/ml streptomycin in a humidified incubator at 37 °C, 5% CO2, for 96 hours. […] Counts per minute were measured with a scintillation counter. In some experiments, the culture supernatants were collected after a 72-hour incubation and cytokine concentrations were measured in the culture supernatants by a human IFN-γ high sensitivity ELISA kit and human IL-17 high sensitivity ELISA kit (eBioscience). […]

[2] = test system: CD4+ T cells from MycHSP70-immunized HLA-DR4 transgenic mice; assay: Splenic CD4+ T cell proliferation from MycHSP70-immunized HLA-DR4 transgenic mice in response to epitopes; format: cell-based, mouse; details: antigen 10 μg/mL, 72 h, irradiated splenocytes, 3H-thymidine
Procedure: Figure 5 Immunization of HLA-DR4 transgenic mice with MycHSP70. (A) HLA-DR4 transgenic mice were immunized with recombinant MycHSP70. Serum anti-MycHSP70 and anti-mouse BiP antibody titers were measured in the 21 days following the first immunization. (B) Splenic CD4+ T cell proliferation from MycHSP70-immunized HLA-DR4 transgenic mice in response to MycHSP70_287–306 and BiP336–355 epitopes. Proliferation was determined by the incorporation of [3]-H thymidine. Data were representative of at least three independent trials. ***p < 0.001.
HLA-DR4 transgenic mice were obtained from Taconic, immunized twice (day 0, 14) with 100 μg of MycHSP70 with the same volume of complete Freund’s adjuvant subcutaneously into the tails, and sacrificed on day 21. MACS-purified CD4^+ T cells (1 × 10^5/mL) were cultured with irradiated splenocytes (1 × 10^6/mL) and an antigen (10 μg/mL) in RPMI 1640 medium supplemented with 5% FCS, 2 mM L-glutamine, 100 U/ml penicillin, 100 μg/ml streptomycin, and 5 × 10^−5 M 2-mercaptoethanol in a humidified incubator at 37 °C, 5% CO2, for 72 h. ^3H-thymidine was pulsed to each well, cells were harvested after an 18-hour incubation, and analyzed with a scintillation counter.

## DRTRKPFQSVIADTGISVSE [MycHSP70_287–306]
[1]; HLA-DR4-positive RA patients n = 6, anti-HLA DR monoclonal antibody (L243) 10 μg/mL
  peptide-induced PBMC proliferation under blockade of HLA-DR: clearly inhibited
[1]; screen of 43 MycHSP70-derived 20-mer peptides, 10 μg/mL, 96 hours, 3H-thymidine uptake, HLA-DR4-positive RA patients n = 20
  proliferation of PBMCs, mean stimulation index: highest proliferative responses
[2]
  CD4+ T cell proliferation in response to peptide: significant CD4^+ T cell proliferation was induced
